Measurements: patent US20050239767A1, “Intermolecular SNAr of the heterocycle-activated nitro and fluoro groups-application in the synthesis of polyazamacrocyclic ligands” (priority 2003, published 2005)

Assays:
HIV-1 = test: NCI in vitro anti-HIV drug screening test (protection of T4 lymphocytes from HIV cytolysis, XTT readout); type: cell-based; conditions: T4 lymphocytes (CEM cell line) infected with HIV-1, 6 days, XTT formazan; numerical EC50/IC50/TI only in FIGS. 1-4
Description: The procedure used in the NCI's test for agents active against HIV is designed to detect agents acting at any stage of the virus reproductive cycle. The assay basically involves the killing of T4 lymphocytes by HIV. Small amounts of HIV are added to cells, and two cycles of virus reproduction are necessary to obtain the required cell killing. Agents that interact with virions, cells, or virus gene-products to interfere with vital activities will protect cells from cytolysis. All tests are done with at least one positive (e.g., AZT-treated) control done at the same time under identical conditions. The procedure is as follows:
Candidate agent was dissolved in dimethyl sulfoxide then diluted 1:100 in cell culture medium before preparing serial half-log10 dilutions. […]
Individual wells were analyzed spectrophotometrically to quantitate formazan production, and in addition were viewed microscopically for detection of viable cells and confirmation of protective activity. […]
The figures display a plot of the log10 of the sample's concentrations (as μg/mL or M) against the measured test values expressed as a percentage of the uninfected, untreated control values. […] The percent protection has been calculated from the data and is presented on the left side of the graph. […]

Compound	melting point	activity against HIV (HIV-1)
Cc1cccc2c1nc1n2CC(C(C)(C)C)Oc2c(Cl)cccc2-1 (centres unmarked)	191 to 192 °C	–
Cc1cccc2c1nc1n2CC(CO)Oc2c(Cl)cccc2-1 (centres unmarked)	186.5 to 188 °C	–
Cc1ccc(S(=O)(=O)OCC2Cn3c(nc4c(C)cccc43)-c3cccc(Cl)c3O2)cc1 (centres unmarked)	168 to 169 °C	–
CC(C)(C)C1Cn2c(nc3ccccc32)-c2ccccc2O1 (centres unmarked)	149 to 150 °C	–
C[C@H]1Cn2c(nc3c(C4OCCO4)cccc32)-c2c(cccc2[N+](=O)[O-])O1	–	confirmed active

Further lines, with some results ahead:

melting point	Compound	activity against HIV (HIV-1)
142 to 143.5 °C	OCC1Cn2c(nc3ccccc32)-c2ccccc2O1 (centres unmarked)	–
200 to 201 °C	CC(C)(C)C1Cn2c(nc3c(C4OCCO4)cccc32)-c2ccccc2O1 (centres unmarked)	–
165.5 to 166.5 °C	Cc1ccc(S(=O)(=O)OCC2Cn3c(nc4ccccc43)-c3ccccc3O2)cc1 (centres unmarked)	–
